Experiments:
[1] = test system: apolipoprotein E-deficient C57/B1J (apo E KO) mice; test: Aortic atherosclerosis quantification (Oil Red O, en face, aortic arch) in ovariectomized apoE KO mice on a high fat diet; assay type: in vivo; settings: atherogenic diet 6 weeks, oral dosing in feed, EE 12 μg/kg/d, Examples 3 or 5 at 10 or 25 mg/kg/d, N=12
Procedure: All animal procedures were performed under strict compliance to IACUC guidelines. Four to six-week old female apolipoprotein E-deficient C57/B1J (apo E KO) mice were ovariectomized by the vendor (Taconic) and delivered to Wyeth within 2 days of surgery. The animals were housed in shoe-box cages and were allowed ad lib food and water. After 3 days acclimation, the animals were randomized by weight into 8 groups (N=12 mice per group). The animals were dosed in the feed with the indicated compounds during the entire course of the study. Dosing at the indicated levels was achieved by blending the compounds with a sucrose vehicle (30 g per 2 kg feed) prior to mixing into the feed. Ethinyl estradiol was used as a positive reference compound and was dosed at 12 μg/kg/d. […] The quantity of compound added to the feed was based on the food consumption rate and the body weights of the animals, which was determined every week. […]
Aortic Atherosclerosis Quantification-The mice were euthanized by anesthesia overdose and the vascular tree was perfused first with 2 ml phosphate buffered saline (pH 7.4), then with 2 ml formalin. For quantification of aortic lesions, aortas were carefully isolated and placed in formalin fixative for 48-72 hours before handling. […] The lesions were quantified en face after staining along the aortic arch using the Image-Pro Plus, Media Cybernetics software. […]

[2] = Lipoprotein determinations (total cholesterol, VLDL, HDL by FPLC) in ovariectomized apoE KO mice on a high fat diet; assay type: in vivo; settings: atherogenic diet 6 weeks, oral dosing in feed
Procedure: All animal procedures were performed under strict compliance to IACUC guidelines. Four to six-week old female apolipoprotein E-deficient C57/B1J (apo E KO) mice were ovariectomized by the vendor (Taconic) and delivered to Wyeth within 2 days of surgery. The animals were housed in shoe-box cages and were allowed ad lib food and water. After 3 days acclimation, the animals were randomized by weight into 8 groups (N=12 mice per group). The animals were dosed in the feed with the indicated compounds during the entire course of the study. Dosing at the indicated levels was achieved by blending the compounds with a sucrose vehicle (30 g per 2 kg feed) prior to mixing into the feed. Ethinyl estradiol was used as a positive reference compound and was dosed at 12 μg/kg/d. Other groups of animals were dosed with the compounds of Example 3 or Example 5 at either 10 or 25 mg/kg/d. Control animals received vehicle (sucrose) alone in the feed. The quantity of compound added to the feed was based on the food consumption rate and the body weights of the animals, which was determined every week. The feeders employed prevented any spillage, so that the food consumption rate was accurate. The animals were fed a Casein-based rodent chow meal (Purina #5K96M) for the first week of the study. The animals were then challenged with a casein-based high fat (HF) diet for week 2 to week 7 of the study. The HF diet (#591-A) was prepared by Purina and contained 1.5% cholesterol, 20% fat as cocoa butter and contained no cholic acid. At the end of the study period, the animals were euthanized and plasma samples obtained. The aortas were perfused via the left ventricle first with buffered saline and then with neutral buffered 10% formalin solution.
Lipoprotein Determinations—Total cholesterol and triglycerides were determined using enzymatic methods with commercially available kits from Boehringer Mannheim and Wako Biochemicals, respectively, and analyzed with the Boehringer Mannheim Hitachii 911 Analyzer. Separation and quantitation of plasma lipoproteins were performed using FPLC size fractionation. Briefly, 50-100 μl serum was filtered and injected into Superose 12 and Superose 6 columns connected in series and eluted at a constant flow rate using 0.15 M NaCl. Areas of each curve representing VLDL, LDL and HDL were integrated using Waters Millennium™ software, and each lipoprotein fraction was quantified by multiplying the Total Cholesterol value by the relative percent area of each respective chromatogram peak.

With `CC1c2cc(F)ccc2-c2ccccc2N1S(=O)(=O)c1ccc(O)cc1` (stereo not shown) [Example 3, 4-[(8-Fluoro-6-methylphenanthridin-5(6H)-yl)sulfonyl]phenol] the melting point was 188 °C, the “extent of aortic fatty streak involvement” value [1] was “significant decrease” and the “VLDL-C (FIG. 2)” value [2] was “increase”. For the same compound, the “serum HDL-C (FIG. 2)” value [2] was “significantly lower” and the “serum total cholesterol (FIG. 2)” value [2] was “no effect”.

`COc1cc(OC)cc(N2CCN(C(=O)[C@](C)(C#N)[C@H](c3ccccc3OC)c3cccc4ccccc34)CC2)c1` [Example 4, (S)-3-[4-(3,5-dimethoxyphenyl)piperazin-1-yl]-2-[(S)-(2-methoxyphenyl)(1-naphthyl)methyl]-2-methyl-3-oxopropanenitrile] gave a melting point of 186 to 188 °C.

In the case of `COc1ccccc1[C@H](c1cccc2ccccc12)[C@@](C)(C#N)C(=O)N1CCC(c2cccc(C(F)(F)F)c2)CC1` [Example 5, (S,S)-3-(2-methoxyphenyl)-2-methyl-3-(1-naphthyl)-2-({4-[3-(trifluoromethyl)phenyl]piperidin-1-yl}carbonyl)propanenitrile], the “extent of aortic fatty streak involvement” value [1] is reported as “significant decrease”, the “VLDL-C (FIG. 2)” value [2] is reported as “increase” and the “serum HDL-C (FIG. 2)” value [2] is reported as “significantly lower”. For the same compound, the “serum total cholesterol (FIG. 2)” value [2] was “no effect”.
